Assay results as given in ChEMBL document CHEMBL6120985, “Discovery of a potent PARP1 PROTAC as a chemosensitizer for the treatment of colorectal cancer” (Eur J Med Chem, 2025).
Active and inactive are the calls of the source. The rule behind the calls is not given here.

What was measured:
[1] = Potency index, ratio of SK-575 IC50 to test compound IC50 for cytotoxicity against human LoVo cells assessed as inhibition of cell growth measured after 72 hrs by CCK-8 method; assay type: functional
HCT-116 [2] = experiment: Induction of apoptosis in human HCT-116 cells assessed as viable cells at 1 uM measured after 72 hrs by annexin V/FITC and PI staining based flow cytometry analysis (reference value: 89.6%); assay type: functional; conditions: read-out: Activity
HCT-116 [3] = experiment: Induction of apoptosis in human HCT-116 cells assessed as necrotic cells at 1 uM measured after 72 hrs by annexin V/FITC and PI staining based flow cytometry analysis (reference value: 0.16%); assay type: functional
HCT-116 [4] = experiment: Effect on p53 protein level in human HCT-116 cells at 1 uM in presence of SN-38 by Western blot analysis; assay type: functional, cell-based
[5] = molecular target: T1, Protein cereblon/Poly [ADP-ribose] polymerase 1 (Homo sapiens, UniProt P09874+Q96SW2); experiment: PROTAC activity at CRBN/PARP1 in human HCT-116 cells assessed as degradation of PARP1 at 1 uM in presence of MLN4924; assay type: cell-based
Target sequence in this assay (P09874 2-1014 limits assumed): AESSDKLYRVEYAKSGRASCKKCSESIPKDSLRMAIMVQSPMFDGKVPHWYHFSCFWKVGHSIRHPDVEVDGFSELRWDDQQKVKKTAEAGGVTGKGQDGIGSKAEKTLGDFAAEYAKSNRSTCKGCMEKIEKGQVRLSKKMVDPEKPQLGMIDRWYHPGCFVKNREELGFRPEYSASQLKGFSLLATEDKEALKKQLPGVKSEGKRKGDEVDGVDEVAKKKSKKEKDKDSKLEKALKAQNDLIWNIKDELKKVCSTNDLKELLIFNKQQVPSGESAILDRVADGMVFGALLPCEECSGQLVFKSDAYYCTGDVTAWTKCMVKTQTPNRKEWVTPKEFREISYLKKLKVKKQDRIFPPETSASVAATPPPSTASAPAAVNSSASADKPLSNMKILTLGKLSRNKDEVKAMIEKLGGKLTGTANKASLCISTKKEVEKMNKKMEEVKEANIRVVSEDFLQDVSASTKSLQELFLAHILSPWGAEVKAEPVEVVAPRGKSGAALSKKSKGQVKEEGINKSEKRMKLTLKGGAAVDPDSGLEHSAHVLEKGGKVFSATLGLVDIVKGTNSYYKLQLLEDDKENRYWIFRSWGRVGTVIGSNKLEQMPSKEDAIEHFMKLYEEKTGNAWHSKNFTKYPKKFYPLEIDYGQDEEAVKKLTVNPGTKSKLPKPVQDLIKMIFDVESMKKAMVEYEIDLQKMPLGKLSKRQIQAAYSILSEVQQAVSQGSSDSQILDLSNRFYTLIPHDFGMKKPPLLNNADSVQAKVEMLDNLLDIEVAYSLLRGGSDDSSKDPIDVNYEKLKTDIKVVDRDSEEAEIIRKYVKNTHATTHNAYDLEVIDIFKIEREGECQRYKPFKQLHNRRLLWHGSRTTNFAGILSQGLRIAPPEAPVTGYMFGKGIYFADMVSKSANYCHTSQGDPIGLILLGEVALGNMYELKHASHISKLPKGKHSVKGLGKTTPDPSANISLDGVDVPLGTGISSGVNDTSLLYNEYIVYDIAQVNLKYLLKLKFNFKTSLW
Target sequence in this assay (Q96SW2 whole entry partner): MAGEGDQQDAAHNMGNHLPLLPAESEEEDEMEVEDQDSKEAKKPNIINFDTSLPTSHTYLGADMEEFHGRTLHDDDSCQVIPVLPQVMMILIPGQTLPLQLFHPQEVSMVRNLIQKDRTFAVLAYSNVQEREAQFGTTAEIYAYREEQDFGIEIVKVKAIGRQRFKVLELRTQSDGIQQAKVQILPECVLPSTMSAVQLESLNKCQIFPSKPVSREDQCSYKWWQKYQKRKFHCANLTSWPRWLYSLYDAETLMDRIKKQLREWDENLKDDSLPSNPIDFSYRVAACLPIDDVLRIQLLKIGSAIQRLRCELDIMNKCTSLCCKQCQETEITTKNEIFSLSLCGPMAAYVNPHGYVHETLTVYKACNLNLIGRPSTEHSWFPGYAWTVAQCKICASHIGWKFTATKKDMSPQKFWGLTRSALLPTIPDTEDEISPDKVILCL

HCT-116 [6] = experiment: Synergistic antiproliferative activity against human HCT-116 cells assessed as combination index at 1 uM measured after 72 hrs in presence of 10 nM of SN-38 by CCK-8 method; assay type: functional
HCT-116 [7] = experiment: Effect on Rad51 protein level in human HCT-116 cells at 1 uM in presence of SN-38 by Western blot analysis; assay type: functional, cell-based
HCT-116 [8] = experiment: Downregulation of […] level in human HCT-116 cells at 1 uM in presence of SN-38 by Western blot analysis; assay type: functional, cell-based
HCT-116 [9] = experiment: Synergistic antiproliferative activity against human HCT-116 cells assessed as combination index at 4 uM measured after 72 hrs in presence of 10 nM of SN-38 by CCK-8 method; assay type: functional
HCT-116 [10] = experiment: Synergistic antiproliferative activity against human HCT-116 cells assessed as combination index at 4 uM measured after 72 hrs in presence of 1.25 nM of SN-38 by CCK-8 method; assay type: functional
HCT-116 [11] = experiment: Upregulation of HMCN1 level in human HCT-116 cells at 1 uM in presence of SN-38 by KEGG enrichment analysis; assay type: functional, cell-based
[12] = molecular target: T1, Protein cereblon/Poly [ADP-ribose] polymerase 1; experiment: PROTAC activity at CRBN/PARP1 in human HCT-116 cells assessed as degradation of PARP1 measured after 24 hrs; assay type: cell-based
Target sequence in this assay (P09874 whole entry): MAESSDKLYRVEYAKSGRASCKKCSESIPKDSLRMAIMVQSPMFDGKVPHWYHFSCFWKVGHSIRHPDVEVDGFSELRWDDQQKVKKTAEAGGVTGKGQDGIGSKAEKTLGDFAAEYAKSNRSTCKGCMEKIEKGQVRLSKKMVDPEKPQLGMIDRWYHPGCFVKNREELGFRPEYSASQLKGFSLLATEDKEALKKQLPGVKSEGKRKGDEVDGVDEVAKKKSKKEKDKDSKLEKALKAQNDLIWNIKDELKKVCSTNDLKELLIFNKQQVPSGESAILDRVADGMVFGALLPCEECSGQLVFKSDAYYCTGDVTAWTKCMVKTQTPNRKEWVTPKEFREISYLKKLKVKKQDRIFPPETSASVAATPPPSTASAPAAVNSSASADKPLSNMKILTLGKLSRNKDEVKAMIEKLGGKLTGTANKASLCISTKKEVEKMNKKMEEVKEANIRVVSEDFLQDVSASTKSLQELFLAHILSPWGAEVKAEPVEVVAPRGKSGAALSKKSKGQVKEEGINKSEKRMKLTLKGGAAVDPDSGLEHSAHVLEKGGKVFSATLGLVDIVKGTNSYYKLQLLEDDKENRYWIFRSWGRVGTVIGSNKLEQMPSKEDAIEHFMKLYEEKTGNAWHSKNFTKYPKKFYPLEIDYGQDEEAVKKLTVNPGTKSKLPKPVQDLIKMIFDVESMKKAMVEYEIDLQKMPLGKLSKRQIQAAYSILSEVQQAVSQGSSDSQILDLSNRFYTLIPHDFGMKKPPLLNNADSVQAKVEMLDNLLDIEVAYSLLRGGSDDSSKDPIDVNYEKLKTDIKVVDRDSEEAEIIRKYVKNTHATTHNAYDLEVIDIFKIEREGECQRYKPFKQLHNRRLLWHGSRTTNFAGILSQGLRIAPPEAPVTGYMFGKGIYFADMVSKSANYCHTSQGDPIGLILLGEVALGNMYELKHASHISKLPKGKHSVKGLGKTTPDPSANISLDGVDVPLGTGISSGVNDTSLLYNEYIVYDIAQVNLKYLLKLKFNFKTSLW
Target sequence in this assay (Q96SW2 whole entry): as the sequence (Q96SW2 whole entry partner) above

HCT-116 [13] = experiment: Synergistic antiproliferative activity against human HCT-116 cells assessed as combination index at 1 uM measured after 72 hrs in presence of 2.5 nM of SN-38 by CCK-8 method; assay type: functional
HCT-116 [14] = experiment: Induction of apoptosis in human HCT-116 cells assessed as necrotic cells at 1 uM measured after 72 hrs in presence of SN-38 by annexin V/FITC and PI staining based flow cytometry analysis (reference value: 0.16%); assay type: functional
HCT-116 [15] = experiment: Effect on DNA-PKcs protein level in human HCT-116 cells at 1 uM in presence of SN-38 by Western blot analysis; assay type: functional, cell-based
[16] = molecular target: T1, Protein cereblon/Poly [ADP-ribose] polymerase 1; experiment: PROTAC activity at CRBN/PARP1 in human HCT-116 cells assessed as degradation of PARP1; assay type: cell-based
Target sequence in this assay (P09874 whole entry): as the sequence (P09874 whole entry) above
Target sequence in this assay (Q96SW2 whole entry): as the sequence (Q96SW2 whole entry partner) above

HCT-116 [17] = experiment: Downregulation of HSPA2 level in human HCT-116 cells at 1 uM in presence of SN-38 by KEGG enrichment analysis; assay type: functional, cell-based
[18] = molecular target: Protein cereblon/Poly [ADP-ribose] polymerase 2 (Homo sapiens, UniProt Q9UGN5+Q96SW2); experiment: PROTAC activity at CRBN/PARP2 in human HCT-116 cells assessed as maximum degradation of PARP2 relative to control; assay type: cell-based
Sequence of Protein cereblon/Poly [ADP-ribose] polymerase 2 (Q96SW2 whole entry, looked up): as the sequence (Q96SW2 whole entry partner) above
Sequence of Protein cereblon/Poly [ADP-ribose] polymerase 2 (Q9UGN5 whole entry, looked up): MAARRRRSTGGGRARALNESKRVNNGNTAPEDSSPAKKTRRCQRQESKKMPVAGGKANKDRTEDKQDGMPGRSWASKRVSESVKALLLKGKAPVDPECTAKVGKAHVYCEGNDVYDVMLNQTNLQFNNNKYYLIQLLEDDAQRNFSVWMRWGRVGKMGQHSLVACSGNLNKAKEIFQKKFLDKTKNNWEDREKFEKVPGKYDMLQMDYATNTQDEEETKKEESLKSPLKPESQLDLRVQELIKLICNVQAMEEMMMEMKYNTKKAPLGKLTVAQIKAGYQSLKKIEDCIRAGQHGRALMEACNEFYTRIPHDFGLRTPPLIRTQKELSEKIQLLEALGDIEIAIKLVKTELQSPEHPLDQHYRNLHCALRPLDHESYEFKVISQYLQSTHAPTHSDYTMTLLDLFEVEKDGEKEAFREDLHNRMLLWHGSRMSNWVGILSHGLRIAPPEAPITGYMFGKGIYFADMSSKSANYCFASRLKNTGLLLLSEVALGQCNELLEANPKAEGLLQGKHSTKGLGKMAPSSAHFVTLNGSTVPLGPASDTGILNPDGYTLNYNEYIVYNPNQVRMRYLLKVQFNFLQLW

HCT-116 [19] = experiment: Induction of apoptosis in human HCT-116 cells assessed as early apoptotic cells at 1 uM measured after 72 hrs in presence of SN-38 by annexin V/FITC and PI staining based flow cytometry analysis (reference value: 3.43%); assay type: functional
HCT-116 [20] = experiment: Synergistic antiproliferative activity against human HCT-116 cells assessed as combination index at 0.5 uM measured after 72 hrs in presence of 1.25 nM of SN-38 by CCK-8 method; assay type: functional
HCT-116 [21] = experiment: Synergistic antiproliferative activity against human HCT-116 cells assessed as combination index at 0.5 uM measured after 72 hrs in presence of 0.625 nM of SN-38 by CCK-8 method; assay type: functional
HCT-116 [22] = experiment: Upregulation of CHK1 level in human HCT-116 cells at 1 uM in presence of SN-38 by Western blot analysis; assay type: functional, cell-based
HCT-116 [23] = experiment: Effect on BRCA level in human HCT-116 cells at 1 uM in presence of SN-38 by Western blot analysis; assay type: functional, cell-based
SW-620 [24] = experiment: Cytotoxicity against human SW620 cells assessed as inhibition of cell growth measured after 72 hrs by CCK-8 method; assay type: functional, cell-based; conditions: SW-620, 72 h
HCT-116 [25] = experiment: Induction of apoptosis in human HCT-116 cells assessed as early apoptotic cells at 1 uM measured after 72 hrs by annexin V/FITC and PI staining based flow cytometry analysis (reference value: 3.43%); assay type: functional
HCT-116 [26] = experiment: Induction of apoptosis in human HCT-116 cells assessed as viable cells at 1 uM measured after 72 hrs in presence of SN-38 by annexin V/FITC and PI staining based flow cytometry analysis (reference value: 89.6%); assay type: functional; conditions: read-out: Activity
HCT-116 [27] = experiment: Synergistic antiproliferative activity against human HCT-116 cells assessed as combination index at 1 uM measured after 72 hrs in presence of 5 nM of SN-38 by CCK-8 method; assay type: functional
SW-620 [28] = experiment: Potency index, ratio of SK-575 IC50 to test compound IC50 for cytotoxicity against human SW620 cells assessed as inhibition of cell growth measured after 72 hrs by CCK-8 method; assay type: functional
HCT-116 [29] = experiment: Induction of apoptosis in human HCT-116 cells assessed as late apoptotic cells at 1 uM measured after 72 hrs by annexin V/FITC and PI staining based flow cytometry analysis (reference value: 6.80%); assay type: functional
HCT-116 [30] = experiment: Synergistic antiproliferative activity against human HCT-116 cells assessed as combination index at 4 uM measured after 72 hrs in presence of 5 nM of SN-38 by CCK-8 method; assay type: functional
[31] = molecular target: T1, Protein cereblon/Poly [ADP-ribose] polymerase 1; experiment: PROTAC activity at CRBN/PARP1 in human HCT-116 cells assessed as degradation of PARP1 at 1 uM in presence of thalidomide; assay type: cell-based
Target sequence in this assay (P09874 2-1014 limits assumed): as the sequence (P09874 2-1014 limits assumed) above
Target sequence in this assay (Q96SW2 whole entry partner): as the sequence (Q96SW2 whole entry partner) above

[32] = molecular target: T1, Protein cereblon/Poly [ADP-ribose] polymerase 1; experiment: PROTAC activity at CRBN/PARP1 in human HCT-116 cells assessed as maximum degradation of PARP1 relative to control; assay type: cell-based
Target sequence in this assay (P09874 2-1014 limits assumed): as the sequence (P09874 2-1014 limits assumed) above
Target sequence in this assay (Q96SW2 whole entry partner): as the sequence (Q96SW2 whole entry partner) above

HCT-116 [33] = experiment: Downregulation of CDC25 level in human HCT-116 cells at 1 uM in presence of SN-38 by KEGG enrichment analysis; assay type: functional, cell-based
[34] = Cytotoxicity against HEK293T cells assessed as inhibition of cell growth measured after 72 hrs by CCK-8 method; assay type: toxicity, cell-based, HEK-293T; conditions: human
HCT-116 [35] = experiment: Induction of apoptosis in human HCT-116 cells assessed as late apoptotic cells at 1 uM measured after 72 hrs in presence of SN-38 by annexin V/FITC and PI staining based flow cytometry analysis (reference value: 6.80%); assay type: functional

## NC(=O)c1cccc2cn(-c3ccc([C@@H]4CCCN(CCC5CCN(CCC6CCN(CC7CCN(c8ccc9c(c8)C(=O)N(C8CCC(=O)NC8=O)C9=O)CC7)CC6)CC5)C4)cc3)nc12 (stereo not given in full)
[1]
  Ratio IC50: <3.5
HCT-116 [2]
  viability at 1 µM: 83.6%
HCT-116 [3]
  Activity: 2.01%
HCT-116 [4]
  Activity: inactive
[5]
  Activity: inactive
HCT-116 [6]
  CI: 0.698
HCT-116 [7]
  Activity: inactive
HCT-116 [8]
  Activity: Active
HCT-116 [9]
  CI: 0.538
HCT-116 [10]
  CI: 0.574
HCT-116 [11]
  Activity: Active
[12]
  DC50: 58.1 nM
HCT-116 [13]
  CI: 0.823
HCT-116 [14]
  Activity: 10.2%
HCT-116 [15]
  Activity: inactive
[16]
  DC50: 30 nM
HCT-116 [17]
  Activity: Active
[18]
  Emax: 84.8%
HCT-116 [19]
  Activity: 11.9%
HCT-116 [20]
  CI: 0.932
HCT-116 [21]
  CI: 0.967
HCT-116 [22]
  Activity: Active
HCT-116 [23]
  Activity: inactive
SW-620 [24]
  IC50: 1630 nM
HCT-116 [25]
  Activity: 4.03%
HCT-116 [26]
  viability at 1 µM: 58.2%
HCT-116 [27]
  CI: 0.698
SW-620 [28]
  Ratio IC50: <6
HCT-116 [29]
  Activity: 10.4%
HCT-116 [30]
  CI: 0.457
[31]
  Activity: inactive
[32]
  Emax: 86.2%
HCT-116 [33]
  Activity: Active
[34]
  IC50 at 72 h: 4130 nM
HCT-116 [35]
  Activity: 19.7%
